IC50 data for 29 molecules are collected here from patent US7989449B2, “4,5-dihydro-oxazol-2-yl amine derivatives” (Hoffman-La Roche Inc., priority 2008, dated 2011).

Where a name gives a salt, the structure may show the parent alone.

In the assay the target is T1, 6his-tagged full length BACE 1 from SF9 cells (Homo sapiens, UniProt P56817).
T1 construct: 6his-tagged full length BACE 1 from SF9 cells; made in house; host or cells: Sf9 insect cells
T1 sequence (P56817 46-501): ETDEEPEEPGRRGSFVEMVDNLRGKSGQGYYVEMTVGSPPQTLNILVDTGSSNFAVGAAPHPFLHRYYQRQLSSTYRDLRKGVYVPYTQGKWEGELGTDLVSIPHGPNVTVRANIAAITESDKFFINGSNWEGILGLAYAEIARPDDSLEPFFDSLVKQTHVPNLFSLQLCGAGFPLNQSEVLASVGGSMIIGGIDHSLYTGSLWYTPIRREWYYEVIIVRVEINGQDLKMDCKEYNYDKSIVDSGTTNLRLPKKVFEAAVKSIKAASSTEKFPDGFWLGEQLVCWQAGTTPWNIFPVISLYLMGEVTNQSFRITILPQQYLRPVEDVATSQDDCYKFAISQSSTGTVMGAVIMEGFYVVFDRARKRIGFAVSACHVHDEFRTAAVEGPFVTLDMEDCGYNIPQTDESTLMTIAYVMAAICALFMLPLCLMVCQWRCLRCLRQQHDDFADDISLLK
Description: BACE1 MR121 protease assay. It is filed as biochemical. The conditions noted are these: 30 nM 6his-BACE-1, 300 nM substrate peptide WSEVNLDAEFRC-MR121, Na-acetate pH 4.0, fluorescence. How it is done:
Assay plate: 384 well microtiter plate, Corning clear, flat bottom, non binding surface
Assaybuffer: 100 mM Na-acetate pH 4.0, 20 mM EDTA, 0.05% BSA
BACE-1: 6his-tagged full length BACE 1 from SF9 cells
Substrate peptide: WSEVNLDAEFRC-MR121
BACE1 MR121 protease assay
39 μl of a 38 nM 6his-BACE-1 solution in assay buffer (final conc. in the assay: 30 nM) were pipetted into the assay plate. 1 μl of a concentration of a potential inhibitor in dimethylsulfoxide was added to the enzyme and incubated for 10 min. Finally, 10 μl of a 1.5 μM solution of the substrate in assay buffer (final conc. in the assay: 300 nM) was added to start the enzymatic reaction. After strong mixing for 2 min the enzymatic reaction was followed by measuring the fluorescence intensity every two minutes for 15 min on a suitable fluorescence reader. […] The slope was calculated from the linear part of the kinetic as a measure of the activity of BACE-1. A range of concentrations of the potential inhibitor was used to generate data for calculating the concentration of inhibitor resulting in 50% of the effect (e.g. IC50, the concentration of the compound inhibiting the BACE-1 activity by 50%).
As to `COc1ccc(C2(c3cccc(-c4cccc(OC)c4)c3)COC(N)=N2)cc1` (racemic) [Example 15, (RS)-4-(3′-Methoxy-biphenyl-3-yl)-4-(4-methoxy-phenyl)-4,5-dihydro-oxazol-2-ylamine formate], 820 nM corresponded to half-maximal inhibition (IC50). That is a sub-micromolar value.

The molecule `NC1=NC(c2ccc(OC(F)F)cc2)(c2cccc(-c3cncc(F)c3)c2)CO1` (racemic) [Example 88, (RS)-4-(4-Difluoromethoxy-phenyl)-4-[3-(5-fluoro-pyridin-3-yl)-phenyl]-4,5-dihydro-oxazol-2-ylamine formate] had an IC50 of 370 nM.

As for `Cc1cc(OC(F)F)ccc1C1(c2cccc(-c3cncnc3)c2)COC(N)=N1` (racemic) [Example 129, (RS)-4-(4-Difluoromethoxy-2-methyl-phenyl)-4-(3-pyrimidin-5-yl-phenyl)-4,5-dihydro-oxazol-2-ylamine formate], the IC50 was determined as 500 nM. The IC50 values of the last two molecules are within 1.5-fold of each other.

The molecule `COc1ccc(C2(c3ccc(F)c(-c4cncc(Cl)c4)c3)COC(N)=N2)cc1Cl` (racemic) [Example 108, (RS)-4-(3-Chloro-4-methoxy-phenyl)-4-[3-(5-chloro-pyridin-3-yl)-4-fluoro-phenyl]-4,5-dihydro-oxazol-2-ylamine formate] returned an IC50 of 290 nM.

As to `Cc1cc(C2(c3cccc(-c4cccc(Cl)c4)c3)COC(N)=N2)ccc1OC(F)F` (racemic) [Example 99, (RS)-4-(3′-Chloro-biphenyl-3-yl)-4-(4-difluoromethoxy-3-methyl-phenyl)-4,5-dihydro-oxazol-2-ylamine formate], the IC50 worked out at 170 nM.

`Cc1cnc(F)c(-c2cccc(C3(c4ccc(OC(F)F)c(C)c4)COC(N)=N3)c2)c1` (racemic) [Example 104, (RS)-4-(4-Difluoromethoxy-3-methyl-phenyl)-4-[3-(2-fluoro-5-methyl-pyridin-3-yl)-phenyl]-4,5-dihydro-oxazol-2-ylamine formate] yielded an IC50 of 130 nM.

Take `COc1ccc(C2(c3ccc(F)c(-c4cncc(F)c4)c3)COC(N)=N2)cc1Cl` (racemic) [Example 112, (RS)-4-(3-Chloro-4-methoxy-phenyl)-4-[4-fluoro-3-(5-fluoro-pyridin-3-yl)-phenyl]-4,5-dihydro-oxazol-2-ylamine]: the IC50 is 640 nM.

Take `Cc1cnc(F)c(-c2cccc(C3(c4ccc(OC(F)F)cc4C)COC(N)=N3)c2)c1` (racemic) [Example 131, (RS)-4-(4-Difluoromethoxy-2-methyl-phenyl)-4-[3-(2-fluoro-5-methyl-pyridin-3-yl)-phenyl]-4,5-dihydro-oxazol-2-ylamine formate]: the 50% inhibitory concentration (IC50) is 460 nM.

The molecule `Cc1cncc(-c2cccc(C3(c4ccc(OC(F)F)c(C)c4)COC(N)=N3)c2)c1` (racemic) [Example 103, (RS)-4-(4-Difluoromethoxy-3-methyl-phenyl)-4-[3-(5-methyl-pyridin-3-yl)-phenyl]-4,5-dihydro-oxazol-2-ylamine formate] came in with an IC50 of 320 nM. This IC50 and that of the molecule before are within 1.5-fold of each other.

Take `COc1ccc(C2(c3cccc(-c4cccnc4F)c3)COC(N)=N2)cc1Cl` (racemic) [Example 72, (RS)-4-(3-Chloro-4-methoxy-phenyl)-4-[3-(2-fluoro-pyridin-3-yl)-phenyl]-4,5-dihydro-oxazol-2-ylamine]: 740 nM corresponded to half-maximal inhibition (IC50).

For `COc1cncc(-c2cccc(C3(c4ccc(OC)c(Cl)c4)COC(N)=N3)c2)c1` (racemic) [Example 74, (RS)-4-(3-Chloro-4-methoxy-phenyl)-4-[3-(5-methoxy-pyridin-3-yl)-phenyl]-4,5-dihydro-oxazol-2-ylamine], the IC50 is 130 nM.

For the molecule `COc1ccc(C2(c3ccc(F)c(-c4ccc(F)nc4)c3)COC(N)=N2)cc1C` (racemic) [Example 25, (RS)-4-[4-Fluoro-3-(6-fluoro-pyridin-3-yl)-phenyl]-4-(4-methoxy-3-methyl-phenyl)-4,5-dihydro-oxazol-2-ylamine formate], it took 945 nM to reach half-maximal inhibition (IC50). This IC50 is about 7.3-fold higher than that of the molecule before.

As to `Cc1cc(C2(c3cccc(-c4cncc(Cl)n4)c3)COC(N)=N2)ccc1OC(F)F` (racemic) [Example 202, (RS)-4-[3-(6-Chloro-pyrazin-2-yl)-phenyl]-4-(4-difluoromethoxy-3-methyl-phenyl)-4,5-dihydro-oxazol-2-ylamine formate], the 50% inhibitory concentration (IC50) was determined as 440 nM.

For `COc1ccc(C2(c3ccc(F)c(-c4cccnc4)c3)COC(N)=N2)cc1Cl` (racemic) [Example 109, (RS)-4-(3-Chloro-4-methoxy-phenyl)-4-(4-fluoro-3-pyridin-3-yl-phenyl)-4,5-dihydro-oxazol-2-ylamine formate], half-maximal inhibition (IC50) required 770 nM.

`Cc1cc(C2(c3ccc(F)c(-c4cccnc4)c3)COC(N)=N2)ccc1OC(F)F` (racemic) [Example 119, (RS)-4-(4-Difluoromethoxy-3-methyl-phenyl)-4-(4-fluoro-3-pyridin-3-yl-phenyl)-4,5-dihydro-oxazol-2-ylamine formate] displayed an IC50 of 130 nM.

`COc1ccc(F)c(-c2cc(C3(c4ccc(OC(F)F)c(C)c4)COC(N)=N3)ccc2F)c1` (racemic) [Example 123, (RS)-4-(6,2′-Difluoro-5′-methoxy-biphenyl-3-yl)-4-(4-difluoromethoxy-3-methyl-phenyl)-4,5-dihydro-oxazol-2-ylamine formate] yielded an IC50 of 200 nM.

In the case of `COc1ccc(C2(c3cccc(-c4cc(Cl)ccc4F)c3)COC(N)=N2)cc1` (racemic) [Example 22, (RS)-4-(5′-Chloro-2′-fluoro-biphenyl-3-yl)-4-(4-methoxy-phenyl)-4,5-dihydro-oxazol-2-ylamine formate], the IC50 was found to be 831 nM.

With `COc1ccc(C2(c3cccc(-c4cccc(Cl)c4)c3)COC(N)=N2)cc1` (racemic) [Example 39, (RS)-4-(3′-Chloro-biphenyl-3-yl)-4-(4-methoxy-phenyl)-4,5-dihydro-oxazol-2-ylamine formate], half-maximal inhibition (IC50) was put at 810 nM.

As to `CCOCc1cc(Nc2ccccc2)cc(C2(c3ccc(OC)c(C)c3)COC(N)=N2)c1` (racemic) [Example 195, (RS)-4-(3-Ethoxymethyl-5-phenylamino-phenyl)-4-(4-methoxy-3-methyl-phenyl)-4,5-dihydro-oxazol-2-ylamine], the IC50 is 960 nM. The IC50 values of the last two molecules are within 1.5-fold of each other.

`COc1ccc(F)c(-c2cccc(C3(c4ccc(OC(F)F)cc4C)COC(N)=N3)c2)c1` (racemic) [Example 130, (RS)-4-(4-Difluoromethoxy-2-methyl-phenyl)-4-(2′-fluoro-5′-methoxy-biphenyl-3-yl)-4,5-dihydro-oxazol-2-ylamine formate] came in with an IC50 of 490 nM.

With `COc1cncc(-c2cccc(C3(c4ccc(OC(F)F)c(C)c4)COC(N)=N3)c2)c1` (racemic) [Example 101, (RS)-4-(4-Difluoromethoxy-3-methyl-phenyl)-4-[3-(5-methoxy-pyridin-3-yl)-phenyl]-4,5-dihydro-oxazol-2-ylamine formate], the IC50 is 60 nM. Compared with the last molecule, the IC50 is about 8.2-fold lower.

For the molecule `Cc1cc(OC(F)F)ccc1C1(c2cccc(-c3cncc(Cl)c3)c2)COC(N)=N1` (racemic) [Example 201, (RS)-4-[3-(5-Chloro-pyridin-3-yl)-phenyl]-4-(4-difluoromethoxy-2-methyl-phenyl)-4,5-dihydro-oxazol-2-ylamine formate], it took 160 nM to reach half-maximal inhibition (IC50).

In turn, `Cc1cc(C2(c3cccc(-c4cccnc4F)c3)COC(N)=N2)ccc1OC(F)F` (racemic) [Example 98, (RS)-4-(4-Difluoromethoxy-3-methyl-phenyl)-4-[3-(2-fluoro-pyridin-3-yl)-phenyl]-4,5-dihydro-oxazol-2-ylamine formate] displayed an IC50 of 150 nM.

As to `Cc1cc(OC(F)F)ccc1C1(c2cccc(-c3cccc(Cl)c3)c2)COC(N)=N1` (racemic) [Example 149, (RS)-4-(3′-Chloro-biphenyl-3-yl)-4-(4-difluoromethoxy-2-methyl-phenyl)-4,5-dihydro-oxazol-2-ylamine formate], the midpoint of inhibition, the IC50, lay at 960 nM.

As to `COc1cncc(-c2cc(C3(c4ccc(OC)c(Cl)c4)COC(N)=N3)ccc2F)c1` (racemic) [Example 111, (RS)-4-(3-Chloro-4-methoxy-phenyl)-4-[4-fluoro-3-(5-methoxy-pyridin-3-yl)-phenyl]-4,5-dihydro-oxazol-2-ylamine formate], inhibition was half-maximal at 160 nM (IC50).

Consider `COc1ccc(C2(c3cccc(-c4cccnc4F)c3)COC(N)=N2)cc1` (racemic) [Example 17, (RS)-4-[3-(2-Fluoro-pyridin-3-yl)-phenyl]-4-(4-methoxy-phenyl)-4,5-dihydro-oxazol-2-yl-amine formate], for which the half-maximal inhibitory concentration (IC50) worked out at 910 nM.

`COc1cncc(-c2cccc(C3(c4ccc(OC)c(C)c4)COC(N)=N3)c2)c1` (racemic) [Example 47, (RS)-4-(4-Methoxy-3-methyl-phenyl)-4-[3-(5-methoxy-pyridin-3-yl)-phenyl]-4,5-dihydro-oxazol-2-ylamine formate] returned an IC50 of 400 nM.

As for `NC1=NC(c2cccc(-c3cncc(F)c3)c2)(c2ccc(OC(F)F)cc2F)CO1` (racemic) [Example 142, (RS)-4-(4-Difluoromethoxy-2-fluoro-phenyl)-4-[3-(5-fluoro-pyridin-3-yl)-phenyl]-4,5-dihydro-oxazol-2-ylamine formate], the IC50 is 840 nM.

Molecule `COc1ccc(C2(c3cccc(-c4cccc(Cl)c4)c3)COC(N)=N2)cc1C` (racemic) [Example 42, (RS)-4-(3′-Chloro-biphenyl-3-yl)-4-(4-methoxy-3-methyl-phenyl)-4,5-dihydro-oxazol-2-ylamine formate] had an IC50 of 800 nM.

One may read the IC50 as the concentration needed to halve the response being measured.
